Reference: patent publication US4013791A, “Peptides having an antihypertensive effect” (Hoechst Aktiengesellschaft, priority 1974, dated 1977)

Legend:
angiotensin II (AT II) [1] = test: Duration of action of a single injection of the analog under permanent infusion of AT II; format: in vivo; settings: single injection 0.1mg/kg i.v. under permanent infusion of AT II
Procedure: (§1) The potency of the AT II analogs is determined by measuring the increase in blood pressure caused by increasing amounts of AT II with and without infusion of the analog to be tested, at different dosages; duration of action is determined on the basis of the time during which a single injection of the analog to be tested is effective under permanent infusion of AT II.

angiotensin II (AT II) [2] = test: Potency of AT II analogs: inhibition of the increase in blood pressure caused by AT II, with and without infusion of the analog; format: in vivo; settings: for Inhibiting effect in percent, 0.5mcg/kg i.v. AT II: AT II 0.5mcg/kg i.v.; for Inhibiting effect in percent, 1mcg/kg i.v. AT II: AT II 1mcg/kg i.v.; for Inhibiting effect in percent, 2mcg/kg i.v. AT II: AT II 2mcg/kg i.v.
Procedure: as §1

[3] = analog infusion 1 mcg/kg/min i.v.
[4] = analog infusion 5 mcg/kg/min i.v.
[5] = analog infusion 10mcg/kg/min i.v.

Substance	duration of action in min. 0.1mg/kg i.v. (angiotensin II (AT II) [1]) [min]	Inhibiting effect in percent, 0.5mcg/kg i.v. AT II (angiotensin II (AT II) [2]; [3]) [%]	Inhibiting effect in percent, 0.5mcg/kg i.v. AT II (angiotensin II (AT II) [2]; [4]) [%]	Inhibiting effect in percent, 0.5mcg/kg i.v. AT II (angiotensin II (AT II) [2]; [5]) [%]	Inhibiting effect in percent, 1mcg/kg i.v. AT II (angiotensin II (AT II) [2]; [3]) [%]	Inhibiting effect in percent, 1mcg/kg i.v. AT II (angiotensin II (AT II) [2]; [4]) [%]	Inhibiting effect in percent, 1mcg/kg i.v. AT II (angiotensin II (AT II) [2]; [5]) [%]	Inhibiting effect in percent, 2mcg/kg i.v. AT II (angiotensin II (AT II) [2]; [3]) [%]	Inhibiting effect in percent, 2mcg/kg i.v. AT II (angiotensin II (AT II) [2]; [4]) [%]	Inhibiting effect in percent, 2mcg/kg i.v. AT II (angiotensin II (AT II) [2]; [5]) [%]
Succinamoyl--Arg--Val--Tyr--Val--His--Pro--Phegly--OH [[Suc^1,Val^5 pgl^8] AT II]	89 ± 22	42	88	98	51	94	94	55	93	92
[1-sarcosine,5-valine, 8-alanine] angiotensin II [[Sar^1,Val^5 Ala^8] AT II]	66 ± 21	0	63	88	22	76	90	31	75	89
